Tested on: 519858-162-T-J1-PDC complex spheroid viability
Experiment: Anticancer human tumor 519858-162-T-J1-PDC patient-derived colon adenocarcinoma cell line growth inhibition [GQUAD]
Details: for IC50: curve of first compound; for viability, T/C: stronger effect = lower value
Procedure, shortened: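 Viability of tumor cells grown as complex spheroids with endothelial and stromal cells, exposed to drug combinations. Top concentration at or near clinical Cmax (else 10 microM), diluted in half-log increments.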

[1] = second compound 0.0316 µM, first compound 0.0316 µM
[2] = second compound 0.0316 µM, first compound 0.1 µM
[3] = second compound 0.0316 µM, first compound 0.316 µM
[4] = second compound 0.0316 µM, first compound 1 µM
[5] = second compound 0.0316 µM, first compound 3.16 µM
[6] = second compound 0.0316 µM, first compound 10 µM
[7] = second compound 0.1 µM, first compound 0.0316 µM
[8] = second compound 0.1 µM, first compound 0.1 µM
[9] = second compound 0.1 µM, first compound 0.316 µM
[10] = second compound 0.1 µM, first compound 1 µM
[11] = second compound 0.1 µM, first compound 3.16 µM
[12] = second compound 0.1 µM, first compound 10 µM
[13] = second compound 0.316 µM, first compound 0.0316 µM
[14] = second compound 0.316 µM, first compound 0.1 µM
[15] = second compound 0.316 µM, first compound 0.316 µM
[16] = second compound 0.316 µM, first compound 1 µM
[17] = second compound 0.316 µM, first compound 3.16 µM
[18] = second compound 0.316 µM, first compound 10 µM
[19] = second compound 1 µM, first compound 0.0316 µM
[20] = second compound 1 µM, first compound 0.1 µM
[21] = second compound 1 µM, first compound 0.316 µM
[22] = second compound 1 µM, first compound 1 µM
[23] = second compound 1 µM, first compound 3.16 µM
[24] = second compound 1 µM, first compound 10 µM
[25] = second compound 3.16 µM, first compound 0.0316 µM
[26] = second compound 3.16 µM, first compound 0.1 µM
[27] = second compound 3.16 µM, first compound 0.316 µM
[28] = second compound 3.16 µM, first compound 1 µM
[29] = second compound 3.16 µM, first compound 3.16 µM
[30] = second compound 3.16 µM, first compound 10 µM
[31] = second compound 10 µM, first compound 0.0316 µM
[32] = second compound 10 µM, first compound 0.1 µM
[33] = second compound 10 µM, first compound 0.316 µM
[34] = second compound 10 µM, first compound 1 µM
[35] = second compound 10 µM, first compound 3.16 µM
[36] = second compound 10 µM, first compound 10 µM
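For viability, T/C in this document: 100% = DMSO vehicle control viability.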

C#Cc1c(F)ccc2cc(O)cc(-c3ncc4c(N5CC6CCC(C5)N6)nc(OCC56CCCN5CC(F)C6)nc4c3F)c12 (stereo unspecified) + Cc1[nH]c2ccc(F)cc2c1-c1nc2c3cccnc3c3ncccc3c2[nH]1
IC50 (second compound 0.0316 µM): > 10 µM | IC50 (second compound 0.1 µM): > 10 µM | IC50 (second compound 0.316 µM): > 10 µM | IC50 (second compound 1 µM): > 10 µM | IC50 (second compound 3.16 µM): > 10 µM | IC50 (second compound 10 µM): > 10 µM | viability, T/C [1]: 103% | viability, T/C [2]: 82.9% | viability, T/C [3]: 92% | viability, T/C [4]: 113% | viability, T/C [5]: 72.3% | viability, T/C [6]: 73.2% | viability, T/C [7]: 111% | viability, T/C [8]: 85.9% | viability, T/C [9]: 126% | viability, T/C [10]: 83.9% | viability, T/C [11]: 68.3% | viability, T/C [12]: 73% | viability, T/C [13]: 104% | viability, T/C [14]: 112% | viability, T/C [15]: 87.5% | viability, T/C [16]: 75.7% | viability, T/C [17]: 106% | viability, T/C [18]: 66.1% | viability, T/C [19]: 79.4% | viability, T/C [20]: 73.9% | viability, T/C [21]: 104% | viability, T/C [22]: 60.4% | viability, T/C [23]: 106% | viability, T/C [24]: 58.5% | viability, T/C [25]: 86.5% | viability, T/C [26]: 80% | viability, T/C [27]: 79.7% | viability, T/C [28]: 52.6% | viability, T/C [29]: 76.7% | viability, T/C [30]: 80.3% | viability, T/C [31]: 78.3% | viability, T/C [32]: 83.2% | viability, T/C [33]: 76.3% | viability, T/C [34]: 63.5% | viability, T/C [35]: 52.3% | viability, T/C [36]: 65.6%

CC(C)(O)C1CCC(Nc2ccc3ncc(-c4cccc(C(F)(F)F)c4)n3n2)CC1 (stereo unspecified) + Cc1[nH]c2ccc(F)cc2c1-c1nc2c3cccnc3c3ncccc3c2[nH]1
IC50 (second compound 0.0316 µM): 2.37 µM | IC50 (second compound 0.1 µM): 2.2 µM | IC50 (second compound 0.316 µM): 1.97 µM | IC50 (second compound 1 µM): 1.81 µM | IC50 (second compound 3.16 µM): 1.75 µM | IC50 (second compound 10 µM): 1.65 µM | viability, T/C [1]: 87.7% | viability, T/C [2]: 99.6% | viability, T/C [3]: 104% | viability, T/C [4]: 98.5% | viability, T/C [5]: 16.1% | viability, T/C [6]: 52.3% | viability, T/C [7]: 101% | viability, T/C [8]: 82.5% | viability, T/C [9]: 97.5% | viability, T/C [10]: 120% | viability, T/C [11]: 26.7% | viability, T/C [12]: 26.9% | viability, T/C [13]: 68.2% | viability, T/C [14]: 84.2% | viability, T/C [15]: 89.3% | viability, T/C [16]: 131% | viability, T/C [17]: 14.9% | viability, T/C [18]: 24.8% | viability, T/C [19]: 88% | viability, T/C [20]: 89.3% | viability, T/C [21]: 99.9% | viability, T/C [22]: 100% | viability, T/C [23]: 7.25% | viability, T/C [24]: 9.88% | viability, T/C [25]: 97.7% | viability, T/C [26]: 84% | viability, T/C [27]: 71.5% | viability, T/C [28]: 122% | viability, T/C [29]: 2.95% | viability, T/C [30]: 4.04% | viability, T/C [31]: 87.5% | viability, T/C [32]: 63% | viability, T/C [33]: 80.3% | viability, T/C [34]: 102% | viability, T/C [35]: 6.15% | viability, T/C [36]: 7.1%

CCCS(=O)(=O)Nc1ccc(F)c(C(=O)c2c[nH]c3ncc(-c4ccc(Cl)cc4)cc23)c1F + Cc1[nH]c2ccc(F)cc2c1-c1nc2c3cccnc3c3ncccc3c2[nH]1
IC50 (second compound 0.0316 µM): > 10 µM | IC50 (second compound 0.1 µM): > 10 µM | IC50 (second compound 0.316 µM): > 10 µM | IC50 (second compound 1 µM): > 10 µM | IC50 (second compound 3.16 µM): 7 µM | IC50 (second compound 10 µM): > 10 µM | viability, T/C [1]: 90.7% | viability, T/C [2]: 92% | viability, T/C [3]: 83.7% | viability, T/C [4]: 129% | viability, T/C [5]: 135% | viability, T/C [6]: 101% | viability, T/C [7]: 103% | viability, T/C [8]: 119% | viability, T/C [9]: 97.9% | viability, T/C [10]: 113% | viability, T/C [11]: 87.6% | viability, T/C [12]: 107% | viability, T/C [13]: 101% | viability, T/C [14]: 116% | viability, T/C [15]: 108% | viability, T/C [16]: 75.4% | viability, T/C [17]: 112% | viability, T/C [18]: 119% | viability, T/C [19]: 62.5% | viability, T/C [20]: 74.1% | viability, T/C [21]: 99.3% | viability, T/C [22]: 99.2% | viability, T/C [23]: 115% | viability, T/C [24]: 101% | viability, T/C [25]: 86.3% | viability, T/C [26]: 51.3% | viability, T/C [27]: 81.9% | viability, T/C [28]: 72% | viability, T/C [29]: 86% | viability, T/C [30]: 38.7% | viability, T/C [31]: 79.8% | viability, T/C [32]: 53.7% | viability, T/C [33]: 60.8% | viability, T/C [34]: 89.2% | viability, T/C [35]: 105% | viability, T/C [36]: 109%
